pIC50: −log10 of the molar value.
System: 873145-292-R-J1-PDC complex spheroid viability
Assay: Anticancer human tumor 873145-292-R-J1-PDC patient-derived renal clear cell carcinoma cell line growth inhibition [POLQ]
Conditions: for pIC50: curve of first compound; for viability, T/C: stronger effect = lower value
Experimental: Multicellular complex tumor spheroid response to Polymerase (POL) inhibitors (novobiocin, ART-558, RP6685) in combination with a variety of drugs and investigational agents in selected tumor cell lines
The POL inhibitors (novobiocin, ART-558, and RP6685) were evaluated both individually and in combination with standard of care and investigational anticancer small molecules within a complex spheroid model of solid tumors. . Complex spheroids include a stromal component modeled by human endothelial cells (HUVEC) and fibroblasts modeled by human mesenchymal stem cells (MSCs). The concentration ranges selected for each drug and investigational agent were based upon clinically achievable concentrations if the clinical Cmax of the agent was known.
Compounds. The drugs and investigational agents: novobiocin (NSC847541), ART-558 (NSC835418), RP-6685 (NSC848927), peposertib (NSC802822), ceralasertib (NSC780249), elimusertib (NSC800525), camonsertib (NSC841442), AZD-1390 (NSC803789), olaparib (NSC753686), talazoparib (NSC767125), rucaparib (NSC756644), sotorasib (NSC818433), MRTX-1133 (NSC836407), SN-38 (NSC673596), topotecan (NSC609699), epotoside (NSC141540), doxorubicin (NSC123127), gemcitabine (NSC613327), 5-fluorouracil (NSC19893), paclitaxel (NSC125973), vemurafenib (NSC761431), MSA-2 (NSC828583), SN-011 (NSC837082), adavosertib (NSC754352), prexasertib (NSC758257), carboplatin (NSC241240) and oxaliplatin (NSC266046), were obtained from the National Cancer Institute (NCI) Developmental Therapeutics Program Chemical Repository (21). The FDA-approved anticancer drug set is available from the Developmental Therapeutics Program at https://dtp.cancer.gov/organization/dscb/obtaining/. […] The stock solutions were prepared in dimethyl sulfoxide (DMSO, Sigma-Aldrich, St. Louis, MO, cat. D2650), except for the platinum compounds which were prepared in saline (Quality Biological, Gaithersburg, MD, cat. 114-055-101), at 800-fold the tested concentration and stored at -70 degrees C prior to their use. All drugs and investigational agents were tested over a range starting from a high concentration at or near the clinical Cmax and decreasing in half-log increments. If the clinical Cmax for an agent had not been determined, the highest concentration tested was 10 microM, except for SN-38, which was tested at a high concentration of 1 microM.
Cell Culture. All cells were maintained in an incubator at 37 degrees C and 5% CO2 with 95% humidity. The PDC lines were cultured according to standard operating procedures established by the NCI PDMR (https://pdmr.cancer.gov). Table 3 of the manuscript, lists the cell lines along with the number of the three cell types plated to form the mct-spheroids and media for tumor cell growth. After thawing, all PDC lines, except 997537-175-T-J1-PDC and 415267-285-R-J2-PDC, were cultured in Matrigel-coated flasks prepared with a working solution of 1X Ham's F-12 nutrient mix, without supplementation (Thermo Fisher Scientific, cat. 11765054), 100 U/mL penicillin-streptomycin (Thermo Fisher Scientific, cat. 15140122), and 2.5% Matrigel (Corning Inc., Corning, NY, cat. 354248) for the first three passages. The two PDC lines 997537-175-T-J1-PDC and 415267-285-R-J2-PDC were cultured on uncoated flasks. The 857933-349-R-J2-PDC line was cultured in 6C/Colon 1B media containing advanced DMEM/F-12 (Thermo Fisher Scientific, cat. 12634028), 10 mM HEPES (Thermo Fisher Scientific, cat. 15630080), 1X GlutaMAX supplement (Thermo Fisher Scientific, cat. 35050061), 0.1 mg/mL primocin (InvivoGen, San Diego, CA, cat. ant-pm-2), 10% defined fetal bovine serum, heat inactivated (HyClone Laboratories Inc., Logan, UT, cat. SH30070.03HI), 50% L-WRN conditioned media (ATCC, cat. CRL-3276), 1.25 mM N-Acetyl-L-cysteine (Sigma-Aldrich, cat. A9165), 10 mM nicotinamide (Sigma-Aldrich, cat. N0636), 1X B-27 supplement (Thermo Fisher Scientific, cat. 17504044), 1X N-2 supplement (Thermo Fisher Scientific, cat. […]

[1] = second compound 0.0316 µM, first compound 0.0316 µM
[2] = second compound 0.0316 µM, first compound 0.1 µM
[3] = second compound 0.0316 µM, first compound 0.316 µM
[4] = second compound 0.0316 µM, first compound 1 µM
[5] = second compound 0.1 µM, first compound 0.0316 µM
[6] = second compound 0.1 µM, first compound 0.1 µM
[7] = second compound 0.1 µM, first compound 0.316 µM
[8] = second compound 0.1 µM, first compound 1 µM
[9] = second compound 0.316 µM, first compound 0.0316 µM
[10] = second compound 0.316 µM, first compound 0.1 µM
[11] = second compound 0.316 µM, first compound 0.316 µM
[12] = second compound 0.316 µM, first compound 1 µM
[13] = second compound 1 µM, first compound 0.0316 µM
[14] = second compound 1 µM, first compound 0.1 µM
[15] = second compound 1 µM, first compound 0.316 µM
[16] = second compound 1 µM, first compound 1 µM
[17] = second compound 3.16 µM, first compound 0.0316 µM
[18] = second compound 3.16 µM, first compound 0.1 µM
[19] = second compound 3.16 µM, first compound 0.316 µM
[20] = second compound 3.16 µM, first compound 1 µM
[21] = second compound 10 µM, first compound 0.0316 µM
[22] = second compound 10 µM, first compound 0.1 µM
[23] = second compound 10 µM, first compound 0.316 µM
[24] = second compound 10 µM, first compound 1 µM
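Also: spheroids exposed to compounds for 7 days before viability readout.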
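For viability, T/C in this document: luminescence signal used as surrogate for viable cell content; 100% = DMSO vehicle control viability.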

CCc1c2c(nc3ccc(O)cc13)-c1cc3c(c(=O)n1C2)COC(=O)[C@]3(O)CC + Cc1cccc(N(C)C(=O)C2C(O)CCN2c2nc(C)cc(C(F)(F)F)c2C#N)c1
pIC50 (second compound 0.0316 µM): 7.12
pIC50 (second compound 0.1 µM): 7.14
pIC50 (second compound 0.316 µM): 7.16
pIC50 (second compound 1 µM): 7.19
pIC50 (second compound 3.16 µM): 7.45
pIC50 (second compound 10 µM): 7.13
viability, T/C (second compound 0.0316 µM, first compound 0.00316 µM): 98.7%
viability, T/C (second compound 0.0316 µM, first compound 0.01 µM): 80.6%
viability, T/C [1]: 57.2%
viability, T/C [2]: 46.8%
viability, T/C [3]: 40%
viability, T/C [4]: 28.6%
viability, T/C (second compound 0.1 µM, first compound 0.00316 µM): 103%
viability, T/C (second compound 0.1 µM, first compound 0.01 µM): 81.6%
viability, T/C [5]: 54.2%
viability, T/C [6]: 46.7%
viability, T/C [7]: 41.9%
viability, T/C [8]: 28.2%
viability, T/C (second compound 0.316 µM, first compound 0.00316 µM): 107%
viability, T/C (second compound 0.316 µM, first compound 0.01 µM): 91.9%
viability, T/C [9]: 57.9%
viability, T/C [10]: 45.3%
viability, T/C [11]: 39.4%
viability, T/C [12]: 26.1%
viability, T/C (second compound 1 µM, first compound 0.00316 µM): 97.2%
viability, T/C (second compound 1 µM, first compound 0.01 µM): 79.8%
viability, T/C [13]: 64.2%
viability, T/C [14]: 39.2%
viability, T/C [15]: 37.9%
viability, T/C [16]: 29.4%
viability, T/C (second compound 3.16 µM, first compound 0.00316 µM): 95%
viability, T/C (second compound 3.16 µM, first compound 0.01 µM): 69.8%
viability, T/C [17]: 54.1%
viability, T/C [18]: 36.9%
viability, T/C [19]: 33.7%
viability, T/C [20]: 33.2%
viability, T/C (second compound 10 µM, first compound 0.00316 µM): 87.8%
viability, T/C (second compound 10 µM, first compound 0.01 µM): 65.6%
viability, T/C [21]: 56.4%
viability, T/C [22]: 47.5%
viability, T/C [23]: 47.6%
viability, T/C [24]: 31.7%

CCc1cc2c(N3CCc4c(cc(Cn5ccnc5)cc4-c4cn(C)nc4C(F)(F)F)C3=O)ccnc2c(OC)n1 + Cc1cccc(N(C)C(=O)C2C(O)CCN2c2nc(C)cc(C(F)(F)F)c2C#N)c1
pIC50 (second compound 0.0316 µM): < 5.00
pIC50 (second compound 0.1 µM): < 5.00
pIC50 (second compound 0.316 µM): < 5.00
pIC50 (second compound 1 µM): < 5.00
pIC50 (second compound 3.16 µM): < 5.00
pIC50 (second compound 10 µM): < 5.00
viability, T/C [1]: 92.1%
viability, T/C [2]: 114%
viability, T/C [3]: 100%
viability, T/C [4]: 94.6%
viability, T/C (second compound 0.0316 µM, first compound 3.16 µM): 88%
viability, T/C (second compound 0.0316 µM, first compound 10 µM): 83.2%
viability, T/C [5]: 99.6%
viability, T/C [6]: 118%
viability, T/C [7]: 88.9%
viability, T/C [8]: 95%
viability, T/C (second compound 0.1 µM, first compound 3.16 µM): 91.6%
viability, T/C (second compound 0.1 µM, first compound 10 µM): 78.4%
viability, T/C [9]: 105%
viability, T/C [10]: 101%
viability, T/C [11]: 82.2%
viability, T/C [12]: 94.6%
viability, T/C (second compound 0.316 µM, first compound 3.16 µM): 94.6%
viability, T/C (second compound 0.316 µM, first compound 10 µM): 83.7%
viability, T/C [13]: 90.5%
viability, T/C [14]: 87.3%
viability, T/C [15]: 91.7%
viability, T/C [16]: 93.4%
viability, T/C (second compound 1 µM, first compound 3.16 µM): 89.7%
viability, T/C (second compound 1 µM, first compound 10 µM): 78%
viability, T/C [17]: 88.2%
viability, T/C [18]: 104%
viability, T/C [19]: 85%
viability, T/C [20]: 91.3%
viability, T/C (second compound 3.16 µM, first compound 3.16 µM): 80.1%
viability, T/C (second compound 3.16 µM, first compound 10 µM): 90.1%
viability, T/C [21]: 90.1%
viability, T/C [22]: 97.3%
viability, T/C [23]: 85.3%
viability, T/C [24]: 84.5%
viability, T/C (second compound 10 µM, first compound 3.16 µM): 81.2%
viability, T/C (second compound 10 µM, first compound 10 µM): 90.3%

— PubChem BioAssay AID1963834 (Molecular Pharmacology Branch, DTP, NCI, 2024)
